From publication PMC11891579, “Fluorescent PyrAte-(S)-citalopram conjugates enable imaging of the serotonin transporter in living tissue” (Chemical Science, 2025)
Entries after “also recorded” stand apart in the source; their conditions may differ.

Key:
[1] = biological target: T1, endogenously expressed SERT (Mus musculus, UniProt Q60857); test: two-photon microscopy of acute mouse brain slices; conditions: for staining of acute mouse brain slices (DS, SNr, DR): 500 nM, 30 min, reduced by escitalopram or paroxetine
T1 construct: label endogenously expressed SERT; from tissue; host or cells: acute coronal brain slices of C57/BL-6 and Pet1-eYFP mice (dorsal striatum, substantia nigra reticulata, dorsal raphe)
T1 sequence (Q60857 whole entry): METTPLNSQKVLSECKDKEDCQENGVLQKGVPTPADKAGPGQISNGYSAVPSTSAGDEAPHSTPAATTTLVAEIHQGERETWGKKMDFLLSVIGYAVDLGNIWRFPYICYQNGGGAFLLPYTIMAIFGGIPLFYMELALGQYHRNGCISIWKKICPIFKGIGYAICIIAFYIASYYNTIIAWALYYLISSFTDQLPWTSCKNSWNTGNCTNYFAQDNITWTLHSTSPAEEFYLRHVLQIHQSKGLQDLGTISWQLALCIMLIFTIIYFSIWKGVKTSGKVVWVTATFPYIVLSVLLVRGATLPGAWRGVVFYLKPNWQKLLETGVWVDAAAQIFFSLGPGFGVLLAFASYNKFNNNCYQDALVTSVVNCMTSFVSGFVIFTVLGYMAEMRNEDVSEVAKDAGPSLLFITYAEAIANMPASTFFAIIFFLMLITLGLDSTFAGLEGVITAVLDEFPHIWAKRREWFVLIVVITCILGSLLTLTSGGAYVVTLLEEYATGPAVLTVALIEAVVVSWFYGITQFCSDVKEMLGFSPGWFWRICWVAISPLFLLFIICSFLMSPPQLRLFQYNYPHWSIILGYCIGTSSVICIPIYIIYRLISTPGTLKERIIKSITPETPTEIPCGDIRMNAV
Text: All animal protocols were approved by the Institutional Animal Care and Use Committee (IACUC) of Columbia University, following guidelines established in the NIH Guide for the Care and Use of Laboratory Animals. All animals were caged in groups of 5 or less in a 12-hr light/dark cycle with access to food and water ad libitum.
Acute mouse brain slices preparation
Wild-type C57/BL-6 (The Jackson Laboratory, Bar Harbor, ME) and Pet1-eYFP mice were sacrificed by cervical dislocation at ages > 12 weeks. Pet1-eYFP mice (Cg-Tg(Fev-cre)1Esd/J (ePet-cre; The Jackson Laboratory) crossed with Ai32(RCLChR2(H134R)/EYFP (Ai32; The Jackson Laboratory) maintained on a 129SvEv/Tac background) were kindly provided by Dr. Mark S. Ansorge (Columbia University Irving Medical Center; Department of Psychiatry, New York, NY 10032). Mice were decapitated, and the brain was removed and placed in an ice-cold sucrose cutting solution. Coronal brain slices with 300 µm thickness were prepared using a Leica VT1200 vibratome at 0 – 4 °C. Slices containing the striatum, substantia nigra, and the raphe were transferred to oxygenated ACSF solution and allowed to equilibrate at room temperature.
Slices were incubated with PyrAte-(S)-citalopram conjugates (500 nM in ACSF) for 30 minutes at room temperature. For inhibition experiments, escitalopram (2 µM) and paroxetine (30 µM) were incubated for 15 minutes prior to addition of the test compound. Each slice was then transferred to an imaging chamber and held in place by a stainless-steel slice anchor (Warner Instruments). ACSF solutions containing the test compounds were continuously perfused throughout the imaging experiments. Structures at depths between 20 to 30 µm from the top of the slice were visualized with fluorescent signals using a Prairie Ultima multi-photon microscopy sytem: PyrAte was imaged using 810 nm excitation wavelength and 525/50 nm emission filter, eYFP was imaged using 965 nm excitation wavelength and 525/50 nm emission filter. Images were captured using Prairie View software and processed with ImageJ. Further co-localization analysis was performed using the JACoP plug-in.1 Statistical and data analysis
Data treatment and statistical analysis were performed using Microsoft Excel 2016 and GraphPad Prism v10.0. Data and statistical tests as shown in Figure 2 include individual points, mean, SEM, and P = 0.0023 as determined using two-tailed, paired t-test (t = 5.690, df = 5). Data and statistical tests as shown in Figure 5 include individual values, mean, SEM, and P values as determined using two-tailed unpaired t-test with Welch’s corrections (Fig. 5A: P = 0.0166, t = 4.665, df = 3.157; Fig. 5B: P =

[2] = biological target: T2, mCherry-SERT-expressing HEK293 cells (Homo sapiens, UniProt P31645); test: confocal microscopy of membrane staining; type: cell-based; conditions: for membrane staining of mCherry-SERT HEK293 cells: 20 nM
T2 construct: expressed in transfected cells
T2 sequence (P31645 whole entry): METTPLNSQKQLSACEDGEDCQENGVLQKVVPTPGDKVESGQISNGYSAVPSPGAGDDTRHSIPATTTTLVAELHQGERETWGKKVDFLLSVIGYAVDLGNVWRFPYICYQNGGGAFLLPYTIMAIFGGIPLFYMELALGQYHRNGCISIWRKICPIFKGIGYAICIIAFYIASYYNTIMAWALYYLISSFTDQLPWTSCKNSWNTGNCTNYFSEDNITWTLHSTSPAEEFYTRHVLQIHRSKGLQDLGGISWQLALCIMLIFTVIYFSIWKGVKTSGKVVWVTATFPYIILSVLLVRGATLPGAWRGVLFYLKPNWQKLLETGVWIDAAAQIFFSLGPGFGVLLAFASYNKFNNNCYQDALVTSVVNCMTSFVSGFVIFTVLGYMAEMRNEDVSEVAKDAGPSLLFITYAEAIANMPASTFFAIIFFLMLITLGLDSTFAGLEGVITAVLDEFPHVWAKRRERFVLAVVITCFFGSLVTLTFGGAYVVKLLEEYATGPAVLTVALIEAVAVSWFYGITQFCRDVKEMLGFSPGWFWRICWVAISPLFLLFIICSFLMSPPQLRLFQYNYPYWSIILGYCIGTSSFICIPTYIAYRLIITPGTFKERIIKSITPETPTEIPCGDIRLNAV
Protocol: Prior to imaging, cell culture medium was replaced with pre-warmed KHB. HEK293 cells expressing mCherry-SERT were imaged using a Nikon A1R laser scanning confocal microscope equipped with a GaAsP detector, using a 60× oil-immersion objective. PyrAtes dissolved in DMSO were diluted in KHB (0.1% v/v) to make solutions with the desired final concentration (20 nM, 100 nM), which were added to each well containing the cells. To test specific binding, cells were pre-incubated with 10 – 30 µM paroxetine for 10 minutes. PyrAtes were excited using a 405 nm laser, and its fluorescent signals collected using 525/50 nm emission filters; mCherry was excited using a 561 nm laser, and fluorescence was collected using 595/50 nm emission filters. Images were captured prior to and at specific time points after addition of the PyrAte compounds using NIS-Elements software. […]
Cells were voltage-clamped (−60 mV) and continuously superfused with a physiological external solution containing 140mM NaCl, 2.5 mM CaCl2,2mM MgCl2, 20mM glucose and 10mM HEPES, pH= 7.4. Micropipettes were made from borosilicate glass capillaries with a resistance ranging from 2.5 – 6 MΩ using a P-97 micropipette puller (Sutter Instrument), which were then filled with an internal solution containing 133mM K-gluconate, 6mM NaCl, 1mM CaCl2, 0.7 mM MgCl2, 10mM HEPES, 10mM EGTA, pH= 7.2. For the measurements we used an amplifier […] and pClamp 11.2 software (MDS Analytical Technologies, Sunnyvale, CA, USA). The compounds were diluted the day of the experiments in external solutions and applied using a DAD-12 superfusion system with a 8-tube perfusion manifold (ALA Scientific Instruments, Farmingdale, NY, USA), guaranteeing rapid solution exchange. Current traces were filtered at 1 kHz and digitized at 10 kHz using a Digidata 1550 (MDS Analytical Technologies). […]

| SMILES | staining of acute mouse brain slices (DS, SNr, DR) [1] | Pearson's correlation coefficient r, co-localization with eYFP-expressing serotonergic projections ([1]; DS, Pet1-eYFP mice) | Pearson's correlation coefficient r, co-localization with eYFP-expressing serotonergic projections ([1]; DS, in the presence of paroxetine) | Pearson's correlation coefficient r, co-localization with eYFP-expressing serotonergic projections ([1]; SNr, Pet1-eYFP mice) | Pearson's correlation coefficient r, co-localization with eYFP-expressing serotonergic projections ([1]; SNr, in the presence of paroxetine) | membrane staining of mCherry-SERT HEK293 cells ([2]; 60 min incubation, absent with paroxetine) | membrane staining of mCherry-SERT HEK293 cells ([2]; 30 min incubation, blocked by 30 μM paroxetine) | staining of mCherry-SERT HEK293 cells ([2]; 100 nM) |
| --- | --- | --- | --- | --- | --- | --- | --- | --- |
| CCN(CC)c1ccc(-c2cc[n+]3c(-c4ccccc4)c(N4CCCC4)n(CCCC(=O)NCc4ccc5c(c4)CO[C@@]5(CCCN(C)C)c4ccc(F)cc4)c3c2)cc1 [PYR-C3-CIT, PyrAte-C3-(S)-citalopram] | localization of the compound in serotonergic regions in the DS and SNr | 0.70 | 0.43 | 0.72 | 0.58 | enhanced co-localization of PyrAte and mCherrySERT signals and no internalization; also recorded: SERT-specific membrane staining |  |  |
| CCN(CC)c1ccc(-c2cc[n+]3c(-c4ccccc4)c(N4CCCC4)n(CCCCCCC(=O)NCc4ccc5c(c4)CO[C@@]5(CCCN(C)C)c4ccc(F)cc4)c3c2)cc1 [PYR-C6-CIT, PyrAte-C6-(S)-citalopram] | effectively stains all three areas examined; also recorded: SERT-specific staining in acute mouse brain slices |  |  |  |  |  | binds specifically to membrane-expressed SERT; also recorded: SERT-specific membrane staining | mitochondrial staining |
